# Laboratory results taken from article PMC12251549, “Engineering a Radiohybrid PSMA Ligand with an Albumin-Binding Moiety and Pharmacokinetic Modulation via an Albumin-Binding Competitor for Radiotheranostics” (Molecules, 2025).
# Legend:
# [1] = In vitro stability test in 0.1 M phosphate buffer; format: physicochemical; conditions: 0.1 M PB solution containing 10% ethanol, 37 °C, 24 h, mean ± SD for three samples
# Experimental: samples were analyzed by RP-HPLC using a Cosmosil 5C18-AR-II (4.6 × 150 mm) at a flow rate of 1 mL/min with a gradient mobile phase of 60% methanol in water with 0.1% trifluoroacetic acid (TFA) to 80% methanol in water with 0.1% TFA for 20 min.
# In vitro stability test in 0.1 M PB solution containing 10% ethanol was performed. The […]
# and 97.1 ± 0.9% (mean ± SD for three samples) after incubating at 37 °C for 24 h, […]
# [2] = Biodistribution after intravenous co-injection of [125I]5 and [211At]6 (Table S2); format: in vivo, normal mice (ddY); conditions: normal mice
# Experimental: [^67Ga]Ga-PSMA-617 (37 kBq) and [^125I]5 (37 kBq) or [^125I]5 (37 kBq) and [^211At]6 (37 kBq) were intravenously co-administered into three or four normal mice at each timepoint (6 weeks male ddY mice, 28–30 g, Japan SLC, Inc., Hamamatsu, Japan). Mice were sacrificed at 10 min, 1 h, 4 h, and 24 h ([^67Ga]Ga-PSMA-617 and [^125I]5) or at 10 min, 1 h, 4 h, 12 h, and 24 h ([^125I]5 and [^211At]6) postinjection of the radiolabeled compounds. Tissues of interest were removed and weighed, and the radioactivity of ^67Ga and ^125I and ^125I and ^211At were determined with an auto well gamma counter (ARC-8001) and corrected for background radiation as described in the Cellular Uptake Experiments Section. To determine the amount and routes of the radioactivity excreted from the body for 24 h after the injection of radiolabeled compounds, mice were housed in metabolic cages (METABOLICA, SUGIYAMA-GEN Co., Ltd., Tokyo, Japan). Data are shown as the percentage of injected dose per gram of tissues (%ID/g) or %ID.
structure (smiles),measurement,setting,value
O=C([O-])CN1CCN(CC(=O)[O-])CCN(CC(=O)NC(CCCCNC(=O)CCCc2ccc([125I])cc2)C(=O)NCC2CCC(C(=O)NC(Cc3ccc4ccccc4c3)C(=O)NCCCCC(NC(=O)NC(CCC(=O)O)C(=O)O)C(=O)O)CC2)CCN(CC(=O)[O-])CC1.[Ga+3] (stereo not shown) [[^125I]5],Radiochemical purity after incubation (in vitro stability),[1],97.0 ± 0.7%
same,In vivo dehalogenation (radioactivity in stomach and neck),[2],minimal deiodination or deastatination
same,Biodistribution of radioactivity: Blood,"[2]; i.v., 10 min after injection",24.34 (0.27) % injected dose per gram
same,Biodistribution of radioactivity: Bone,"[2]; i.v., 10 min after injection",2.42 (0.54) % injected dose per gram
same,Biodistribution of radioactivity: Brain,"[2]; i.v., 10 min after injection",0.50 (0.04) % injected dose per gram
same,Biodistribution of radioactivity: Heart,"[2]; i.v., 10 min after injection",4.48 (0.24) % injected dose per gram
same,Biodistribution of radioactivity: Kidney,"[2]; i.v., 10 min after injection",5.27 (0.62) % injected dose per gram
same,Biodistribution of radioactivity: L. Intestine,"[2]; i.v., 10 min after injection",0.84 (0.07) % injected dose per gram
same,Biodistribution of radioactivity: Liver,"[2]; i.v., 10 min after injection",3.56 (0.01) % injected dose per gram
same,Biodistribution of radioactivity: Lung,"[2]; i.v., 10 min after injection",13.97 (2.31) % injected dose per gram
same,Biodistribution of radioactivity: Muscle,"[2]; i.v., 10 min after injection",1.01 (0.09) % injected dose per gram
same,Biodistribution of radioactivity: Neck,"[2]; i.v., 10 min after injection",0.06 (0.01) % injected dose
same,Biodistribution of radioactivity: Pancreas,"[2]; i.v., 10 min after injection",2.73 (0.25) % injected dose per gram
same,Biodistribution of radioactivity: S. Intestine,"[2]; i.v., 10 min after injection",1.63 (0.23) % injected dose per gram
same,Biodistribution of radioactivity: Spleen,"[2]; i.v., 10 min after injection",2.78 (0.58) % injected dose per gram
same,Biodistribution of radioactivity: Stomach,"[2]; i.v., 10 min after injection",1.12 (0.10) % injected dose
same,Biodistribution of radioactivity: Blood,"[2]; i.v., 1 h after injection",15.32 (1.28) % injected dose per gram
same,Biodistribution of radioactivity: Bone,"[2]; i.v., 1 h after injection",1.67 (0.13) % injected dose per gram
same,Biodistribution of radioactivity: Brain,"[2]; i.v., 1 h after injection",0.33 (0.09) % injected dose per gram
same,Biodistribution of radioactivity: Heart,"[2]; i.v., 1 h after injection",4.10 (0.15) % injected dose per gram
same,Biodistribution of radioactivity: Kidney,"[2]; i.v., 1 h after injection",4.66 (0.50) % injected dose per gram
same,Biodistribution of radioactivity: L. Intestine,"[2]; i.v., 1 h after injection",0.89 (0.15) % injected dose per gram
same,Biodistribution of radioactivity: Liver,"[2]; i.v., 1 h after injection",2.32 (0.32) % injected dose per gram
same,Biodistribution of radioactivity: Lung,"[2]; i.v., 1 h after injection",8.89 (2.09) % injected dose per gram
same,Biodistribution of radioactivity: Muscle,"[2]; i.v., 1 h after injection",1.24 (0.08) % injected dose per gram
same,Biodistribution of radioactivity: Neck,"[2]; i.v., 1 h after injection",0.15 (0.04) % injected dose
same,Biodistribution of radioactivity: Pancreas,"[2]; i.v., 1 h after injection",1.86 (0.33) % injected dose per gram
same,Biodistribution of radioactivity: S. Intestine,"[2]; i.v., 1 h after injection",1.62 (0.30) % injected dose per gram
same,Biodistribution of radioactivity: Spleen,"[2]; i.v., 1 h after injection",1.79 (0.34) % injected dose per gram
same,Biodistribution of radioactivity: Stomach,"[2]; i.v., 1 h after injection",1.29 (0.50) % injected dose
same,Biodistribution of radioactivity: Blood,"[2]; i.v., 4 h after injection",12.08 (0.95) % injected dose per gram
same,Biodistribution of radioactivity: Bone,"[2]; i.v., 4 h after injection",1.83 (0.61) % injected dose per gram
same,Biodistribution of radioactivity: Brain,"[2]; i.v., 4 h after injection",0.29 (0.04) % injected dose per gram
same,Biodistribution of radioactivity: Heart,"[2]; i.v., 4 h after injection",3.88 (0.13) % injected dose per gram
same,Biodistribution of radioactivity: Kidney,"[2]; i.v., 4 h after injection",5.20 (0.25) % injected dose per gram
same,Biodistribution of radioactivity: L. Intestine,"[2]; i.v., 4 h after injection",1.26 (0.30) % injected dose per gram
same,Biodistribution of radioactivity: Liver,"[2]; i.v., 4 h after injection",1.50 (0.16) % injected dose per gram
same,Biodistribution of radioactivity: Lung,"[2]; i.v., 4 h after injection",7.01 (1.68) % injected dose per gram
same,Biodistribution of radioactivity: Muscle,"[2]; i.v., 4 h after injection",1.20 (0.07) % injected dose per gram
same,Biodistribution of radioactivity: Neck,"[2]; i.v., 4 h after injection",0.27 (0.09) % injected dose
same,Biodistribution of radioactivity: Pancreas,"[2]; i.v., 4 h after injection",1.57 (0.21) % injected dose per gram
same,Biodistribution of radioactivity: S. Intestine,"[2]; i.v., 4 h after injection",1.28 (0.16) % injected dose per gram
same,Biodistribution of radioactivity: Spleen,"[2]; i.v., 4 h after injection",1.54 (0.22) % injected dose per gram
same,Biodistribution of radioactivity: Stomach,"[2]; i.v., 4 h after injection",0.94 (0.29) % injected dose
same,Biodistribution of radioactivity: Blood,"[2]; i.v., 12 h after injection",11.77 (1.29) % injected dose per gram
same,Biodistribution of radioactivity: Bone,"[2]; i.v., 12 h after injection",1.88 (0.25) % injected dose per gram
same,Biodistribution of radioactivity: Brain,"[2]; i.v., 12 h after injection",0.34 (0.07) % injected dose per gram
same,Biodistribution of radioactivity: Heart,"[2]; i.v., 12 h after injection",3.62 (0.39) % injected dose per gram
same,Biodistribution of radioactivity: Kidney,"[2]; i.v., 12 h after injection",6.62 (0.34) % injected dose per gram
same,Biodistribution of radioactivity: L. Intestine,"[2]; i.v., 12 h after injection",0.87 (0.13) % injected dose per gram
same,Biodistribution of radioactivity: Liver,"[2]; i.v., 12 h after injection",1.59 (0.12) % injected dose per gram
same,Biodistribution of radioactivity: Lung,"[2]; i.v., 12 h after injection",8.00 (1.24) % injected dose per gram
same,Biodistribution of radioactivity: Muscle,"[2]; i.v., 12 h after injection",1.32 (0.07) % injected dose per gram
same,Biodistribution of radioactivity: Neck,"[2]; i.v., 12 h after injection",0.12 (0.09) % injected dose
same,Biodistribution of radioactivity: Pancreas,"[2]; i.v., 12 h after injection",1.75 (0.45) % injected dose per gram
same,Biodistribution of radioactivity: S. Intestine,"[2]; i.v., 12 h after injection",1.08 (0.07) % injected dose per gram
same,Biodistribution of radioactivity: Spleen,"[2]; i.v., 12 h after injection",1.75 (0.21) % injected dose per gram
same,Biodistribution of radioactivity: Stomach,"[2]; i.v., 12 h after injection",0.68 (0.09) % injected dose
same,Biodistribution of radioactivity: Blood,"[2]; i.v., 24 h after injection",8.71 (0.20) % injected dose per gram
same,Biodistribution of radioactivity: Bone,"[2]; i.v., 24 h after injection",1.26 (0.12) % injected dose per gram
same,Biodistribution of radioactivity: Brain,"[2]; i.v., 24 h after injection",0.22 (0.02) % injected dose per gram
same,Biodistribution of radioactivity: Heart,"[2]; i.v., 24 h after injection",2.91 (0.21) % injected dose per gram
same,Biodistribution of radioactivity: Kidney,"[2]; i.v., 24 h after injection",5.06 (0.61) % injected dose per gram
same,Biodistribution of radioactivity: L. Intestine,"[2]; i.v., 24 h after injection",0.63 (0.09) % injected dose per gram
same,Biodistribution of radioactivity: Liver,"[2]; i.v., 24 h after injection",1.29 (0.05) % injected dose per gram
same,Biodistribution of radioactivity: Lung,"[2]; i.v., 24 h after injection",5.00 (0.75) % injected dose per gram
same,Biodistribution of radioactivity: Muscle,"[2]; i.v., 24 h after injection",1.08 (0.08) % injected dose per gram
same,Biodistribution of radioactivity: Neck,"[2]; i.v., 24 h after injection",0.17 (0.05) % injected dose
same,Biodistribution of radioactivity: Pancreas,"[2]; i.v., 24 h after injection",1.35 (0.12) % injected dose per gram
same,Biodistribution of radioactivity: S. Intestine,"[2]; i.v., 24 h after injection",0.69 (0.04) % injected dose per gram
same,Biodistribution of radioactivity: Spleen,"[2]; i.v., 24 h after injection",1.21 (0.27) % injected dose per gram
same,Biodistribution of radioactivity: Stomach,"[2]; i.v., 24 h after injection",0.55 (0.02) % injected dose
same,Biodistribution of radioactivity: Feces,"[2]; i.v., excreted for 24 h after injection (column not printed safely), Table S2",8.13 (1.09) % injected dose
